{
  "source": "patent US20060177821A1",
  "about": "“Association of the h2 haplotype of the p2y12 receptor with an increased risk for thrombosis and peripheral arterial disease” (priority 2002, published 2006)",
  "key": {"[1]": {"system": "iloprost-stimulated cAMP accumulation in platelets (P2Y12 regulation of adenylate cyclase)", "assay": "Inhibition by ADP of iloprost-stimulated cAMP accumulation in platelets (EIA)", "format": "cell-based", "settings": "Homo sapiens, Platelet, citrated PRP, read-out: inhibition of iloprost-stimulated cAMP formation; for inhibition at 1 µM: 1 μM ADP; for inhibition at 2 µM: 2 μM ADP; for inhibition at 5 µM: 5 μM ADP", "protocol": "Platelet cAMP content was measured in 20 selected subjects by incubating 270 μL of PRP with 10 μL of a solution of the stable prostacyclin analog iloprost (20 μg/L, final concentration) (Ilomédine®, Schering-Plough) for 1 min, with stirring, then adding 20 μL of saline or ADP (1, 2 or 5 μM). The reaction was stopped 3 min later by adding 20 μL of 12% trichloroacetic acid. CAMP was then extracted and measured with an enzyme immunoassay (EIA) (Amersham, Pharmacia Biotech, Orsay, France) according to the manufacturer's instructions, without knowledge of the subject's P2Y12 genotype."}, "[2]": {"system": "platelets", "assay": "ADP-induced platelet aggregation in platelet-rich plasma (photometric aggregometry)", "format": "cell-based, human", "settings": "2 μM ADP; for maximal aggregation: mean±SEM; for maximal aggregation in response to ADP (median): citrated PRP, average of visits 1 and 2", "protocol": "Venous blood was collected between 8:00 and 10:00 am, after an overnight fast, in tubes containing either 0.105 M sodium citrate (1 vol/9 vol) (BD Vacutainer®, Becton Dickinson, Le Pont de Claix, France) or 50 μg/mL lepirudine (Refludan®, Hoechst, Paris, France) using a 19-gauge needle and no tourniquet. The first 2 ml of blood was discarded. Platelet-rich plasma (PRP) was obtained by centrifugation at 1000 rpm for 10 min at room temperature. Autologous platelet-poor plasma, obtained by further centrifugation at 4000 rpm for 15 min, was used to adjust the platelet count of PRP to 250×10^9/L.\nAggregation studies were performed within 2 hours after blood collection. Aggregation was measured at 37° C. by using a photometric method on a four-channel aggregometer (Regulest® Amneville, France). A 280-μL aliquot of PRP was incubated for 3 min at 37° C. and then was stirred at 1100 rpm for 2 min before adding 20 μL of saline or ADP (Sigma-Aldrich, St Quentin Fallavier, France) at 1, 2 or 5 μM (final concentration). The platelet aggregation response was recorded for 5 min."}, "[3]": {"settings": "platelets from carriers of the H2 haplotype"}, "[4]": {"settings": "platelets from non carriers of the H2 haplotype"}},
  "note": "Like-named read-outs stand apart in the source and are kept apart here.",
  "data": [
    {"compound": "Nc1ncnc2c1ncn2[C@@H]1O[C@H](COP(=O)(O)OP(=O)(O)O)[C@@H](O)[C@H]1O", "note": "[ADP, adenosine 5′-diphosphate]", "values": [
      {"measurement": "inhibition at 1 µM", "setting": "[1]; [3]", "result": 31, "unit": "%"},
      {"measurement": "inhibition at 1 µM", "setting": "[1]; [4]", "result": 13, "unit": "%"},
      {"measurement": "inhibition at 2 µM", "setting": "[1]; [3]", "result": 39, "unit": "%"},
      {"measurement": "inhibition at 2 µM", "setting": "[1]; [4]", "result": 31, "unit": "%"},
      {"measurement": "inhibition at 5 µM", "setting": "[1]; [3]", "result": 50, "unit": "%"},
      {"measurement": "inhibition at 5 µM", "setting": "[1]; [4]", "result": 37, "unit": "%"},
      {"measurement": "maximal aggregation", "setting": "[2]; citrate-anticoagulated PRP (low Ca++), 10 carriers of the H2 allele", "result": "71.5%±5.2%"},
      {"measurement": "maximal aggregation", "setting": "[2]; citrate-anticoagulated PRP (low Ca++), 10 non carriers of the H2 allele", "result": "50.7%±7.2%"},
      {"measurement": "maximal aggregation in response to ADP (median)", "setting": "[2]; subjects carrying no H2 alleles (H1/H1, n=74)", "result": 34.7, "unit": "%"},
      {"measurement": "maximal aggregation in response to ADP (median)", "setting": "[2]; subjects carrying one H2 allele (H1/H2, n=21)", "result": 67.9, "unit": "%"},
      {"measurement": "maximal aggregation in response to ADP (median)", "setting": "[2]; subjects carrying two H2 alleles (H2/H2, n=3)", "result": 82.4, "unit": "%"},
      {"measurement": "maximal aggregation", "setting": "[2]; hirudin-anticoagulated PRP (physiological Ca++), 10 carriers of the H2 allele", "result": "53.8%±3.9%"},
      {"measurement": "maximal aggregation", "setting": "[2]; hirudin-anticoagulated PRP (physiological Ca++), 10 non carriers of the H2 allele", "result": "42.8%±3.4%"}
    ]}
  ]
}
